# Values joined by “and” are separate entries in the source; they are usually repeats but may differ in a detail not shown here. Equal values may be shown once.
# Tests used:
# [1] = system: PN13 tumors; test: Muc16 immunohistochemistry of treated PN13 tumors; assay type: in vivo, NOD/SCID mice; settings: vs control antibody
# Protocol: The cell differentiation capability of FZD8-Fc was also evaluated in the OMP-PN13 pancreas tumor xenograft model. Dissociated OMP-PN13 cells (50,000 per animal) were injected subcutaneously into 6-8 week old male NOD/SCID mice. Tumor growth was monitored weekly and tumor measurements were initiated once tumors were palpable. On day 40 mice with average tumor volume of 114 mm^3 were randomized into 4 groups of 10 animals each. Animals were injected with either control antibody or FZD8-Fc (15 mg/kg). Administration of the FZD8-Fc and control antibody was performed via injection into the intraperitoneal cavity, twice weekly. After 19 days of treatment, the tumors were excised and immunohistochemistry analysis was performed using standard techniques. Briefly, tumors were fixed in formalin, embedded in paraffin, and tumor sections of 4 μm thickness were cut. After deparaffinization and hydration, the tumor sections were subjected to an antigen retrieval process in Tris buffer (pH 9.5). Sections were incubated with hydrogen peroxide (Sigma-Aldrich, St Louis, Mo.) for 10 minutes to block endogenous peroxidases. […]
# Tumor sections from PN13 tumors treated with control antibody or FZD8-Fc were obtained and treated as described above. […] The bound antibody was detected using the immunohistochemistry protocol described above.
# [2] = system: PE13 breast tumor; test: PE13 breast tumor xenograft, tumor growth; assay type: in vivo, NOD/SCID mice; settings: FZD8-Fc 5 mg/kg i.p. twice a week, single agent
# Protocol: Dissociated PE13 breast tumor cells (50,000 per animal) were injected subcutaneously into the mammary fat pads of NOD/SCID mice. Mice were monitored weekly and tumors were allowed to grow until they were approximately 106 mm^3. On day 27 post cell injection the mice were randomized into four treatment groups (n=10 mice/group) and treated with control antibody, FZD8-Fc (54F03), taxol or a combination of FZD8-Fc and taxol. Taxol was administered intraperitoneally at a dose of 7.5 mg/kg once a week and FZD8-Fc was administered intraperitoneally at a dose of 5 mg/kg twice a week.
# [3] = system: PN4 tumors; test: Flow cytometry for ESA and CD44 on treated PN4 tumors; assay type: in vivo, NOD/SCID mice; settings: PN4 tumors harvested day 85, 5 tumors pooled; control antibody 12.7%
# Protocol: Control and treated tumors from the OMP-PN4 xenograft study described above were harvested at the end of the study (day 85). The tumors were processed and dissociated into single cells. Single cell suspensions derived from 5 tumors of each treatment group were pooled, and the pooled samples were then incubated on ice for 30 min with antibodies that bind mouse cells selectively (α-mouse CD45-biotin 1:200 dilution and rat α-mouse H2Kd-biotin 1:100 dilution, BioLegend, San Diego, Calif.), followed by addition of streptavidin-labeled magnetic beads (Invitrogen, Carlsbad, Calif.). Mouse cells were removed with the aid of a magnet. For analysis of human cell surface markers, the single tumor cell suspension was stained with anti-ESA (Biomeda, Hayward, Calif.) and anti-CD44 (BD Biosciences, San Jose, Calif.) antibodies which were directly conjugated to fluorochromes. Dead cells were excluded by using the viability dye DAPI. Flow cytometry was performed using a FACS Aria instrument (Becton Dickinson, Franklin Lakes, N.J.). Side scatter and forward scatter profiles were used to eliminate cell clumps.
# [4] = system: canonical Wnt signaling pathway; test: Luciferase reporter assay in STF293 cells with Wnt3a-conditioned medium; assay type: cell-based; settings: blocking of Wnt3a-induced luciferase in STF293 cells; relative to reference standard set at 100%
# Protocol: The ability of the FZD8-Fc variants to block or inhibit activation of the Wnt signaling pathway was determined in vitro using a luciferase reporter assay. STF293 cells were cultured in DMEM supplemented with antibiotics and 10% FCS. The STF293 cells are stably transfected with a reporter vector containing seven copies of the TCF transcriptional response element linked to a promoter upstream of a firefly luciferase reporter gene. This construct measures the activity of the canonical Wnt signaling pathway. The cells were added to cultures plates at 10,000 cells per well. After an overnight incubation the FZD8-Fc variants or control mouse JAG1-Fc were added in combination with Wnt3a-conditioned medium. The FZD8-Fc variants and JAG1-Fc were used at concentrations of 20, 4, 0.8, 0.16, 0.03, 0.006, 0.0012, and 0.0003 ug/ml. The cells were incubated in 25% Wnt3A-conditioned medium that had been prepared from L cells that stably express Wnt3a. After overnight incubation (approximately 18 hrs), luciferase levels were measured using a Steady-Glo® luciferase assay kit (Promega, Madison, Wis.).
# The blocking activity of the FZD8-Fc variants was determined and is presented in Table 3 as relative activity as compared to the same reference standard run in each assay which was set at 100%.
# [5] = system: C28 colon tumor; test: C28 colon tumor xenograft, FZD8-Fc variants (Example 14); assay type: in vivo, NOD/SCID mice; settings: C28 established tumors; 15 mg/kg i.p. twice a week
# Protocol: Dissociated C28 colon tumor cells (10,000 cells) were injected subcutaneously into 6-8 week old male NOD/SCID mice. Tumors were allowed to grow for 28 days until they reached an average volume of 145 mm^3. The mice were randomized (n=9 per group) and treated with FZD8-Fc variants or a control antibody at a dose of 15 mg/kg twice a week. Administration of the FZD8-Fc variants and control antibody was performed via injection into the intraperitoneal cavity. Tumor growth was monitored and tumor volumes were measured with electronic calipers at the indicated time points. Data are expressed as mean±S.E.M.
# [6] = system: PN21 pancreas tumor; test: PN21 pancreas tumor xenograft, tumor growth; assay type: in vivo, NOD/SCID mice; settings: FZD8-Fc 15 mg/kg i.p. once weekly
# Protocol: The anti-tumor activity of FZD8-Fc (54F03) was evaluated in the PN21 pancreas tumor xenograft model. Dissociated OMP-PN21 cells (50,000 per animal) were injected subcutaneously into 6-8 week old male NOD/SCID mice. Tumor growth was monitored weekly and tumor measurements were initiated once tumors were palpable. On day 36, mice with average tumor volumes of 144 mm^3 were randomized into 4 groups of 9 animals each. Animals were injected with control antibody, FZD8-Fc (15 mg/kg), gemcitabine (2 mg/kg) or a combination of FZD8-Fc and gemcitabine. Administration of the FZD8-Fc and gemcitabine was performed via injection into the intraperitoneal cavity, once weekly. Tumors were measured twice a week and tumor volume was determined as described herein.
substance,measurement,setting,value
54F03: Fri domain of human FZD8 fused to human IgG1 Fc with GRA linker; SEQ ID NO:1,cells expressing Muc16,[1],increase in cells expressing Muc16
same,reduction of tumor growth relative to control antibody,[2],20%
same,bulk tumor population expressing both ESA and CD44 at high levels (double positive population),[3],1.9%
same,% Relative Activity,[4],107% and 143%
same,reduction in tumor growth as compared to control antibody,[5],approximately 56%
same,reduction in tumor growth as compared to control,[6],66%
